From ChEMBL document CHEMBL3430912, “GSK Tres Cantos Anti-Kinetoplastid Screening (TCAKS) Data”

Tests used:
[1] = system: Trypanosoma cruzi; experiment: GSK_TCAKS: pIC50 Trypanosoma cruzi viability assay using beta-GAL activity. This assay was run at single shot at 5uM compound concentration per well. The biological reagents consisted of NIH-3T3 host cells and trypomastigotes parasitic cells; both cell types were set to a 3.3 * 10^5 cells/mL dilution in assay DMEM by means of a CASY cell counter device using a 60um capillary. 6 uL of the mixture were dispensed per well (about 1 * 10^3 host-cells and 1 * 10^3 parasites) with a Multidrop Combi dispenser. […] In all wells, the percentage of DMSO never exceeded 0.5%. Plates incubated for four days at 37C, 5% CO2. The substrate used for the assay fluorescence intensity (FLINT) readout was resorufin-beta-D-galactopiranoside (Sigma-Aldrich) at 5uM per well. It was diluted in PBS supplemented with the soft detergent Igepal (Fluka).; type: functional, organism-based, Mus musculus; details: Tulahuen, NIH3T3
[2] = system: Trypanosoma cruzi; experiment: (§1) GSK_TCAKS: pIC50 Trypanosoma cruzi Imaging: Infected Cells. […] Cells were then washed once with PBS before infection. T. cruzi trypomastigotes, collected at days 5 to 8 after infection from LLC-MK2 parasite infected cultures, were allowed to swim out for 4h at 37C from a centrifuged pellet (2,500 rpm/10 min/room temperature). Trypomastigotes were then collected and counted in a CASY Cell Counter. Trypomastigotes, in supplemented DMEM, were added to H9c2 cultures in a multiplicity of infection of 1 and incubated for 18 h. Cells were washed once with PBS before incubation of the infected H9c2 monolayer with trypsin (Life-Technologies) to detach cells from the flask. Cells were counted in a CASY Cell Counter using a 150 um capillary and their density set at 5 * 10^4 cells per mL in supplemented assay DMEM. Infected H9c2 were dispensed into 384-well poly-lysine coated assay plates at 50uL per well using a Multidrop Combi dispenser. After seeding them, the plates were incubated at 37C, 5% CO2 for 72h. Cultures were then fixed and stained by addition of 50 uL of a solution containing 8% formaldehyde and 4 uM DRAQ5 DNA dye (BioStatus, UK) per well. […] Five images were collected per well for reliable statistical analysis. Automated image analysis was performed with a script developed on Acapella High Content Imaging and Analysis Software (PerkinElmer). Output: percentage of infected cells per well as a second infection marker.; type: functional, organism-based, Rattus norvegicus; details: H9c2, 4 h
[3] = system: Trypanosoma cruzi; experiment: GSK_TCAKS: pIC50 Trypanosoma cruzi Imaging: Amastigotes/Cell. […] Cells were then washed once with PBS before infection. T. cruzi trypomastigotes, collected at days 5 to 8 after infection from LLC-MK2 parasite infected cultures, were allowed to swim out for 4h at 37C from a centrifuged pellet (2,500 rpm/10 min/room temperature). Trypomastigotes were then collected and counted in a CASY Cell Counter. Trypomastigotes, in supplemented DMEM, were added to H9c2 cultures in a multiplicity of infection of 1 and incubated for 18 h. Cells were washed once with PBS before incubation of the infected H9c2 monolayer with trypsin (Life-Technologies) to detach cells from the flask. Cells were counted in a CASY Cell Counter using a 150 um capillary and their density set at 5 * 10^4 cells per mL in supplemented assay DMEM. Infected H9c2 were dispensed into 384-well poly-lysine coated assay plates at 50uL per well using a Multidrop Combi dispenser. After seeding them, the plates were incubated at 37C, 5% CO2 for 72h. Cultures were then fixed and stained by addition of 50 uL of a solution containing 8% formaldehyde and 4 uM DRAQ5 DNA dye (BioStatus, UK) per well. […] Five images were collected per well for reliable statistical analysis. Automated image analysis was performed with a script developed on Acapella High Content Imaging and Analysis Software (PerkinElmer). Output: number of amastigotes per cell as infection level measurement.; type: functional, organism-based, Rattus norvegicus; details: H9c2, 4 h
[4] = system: Trypanosoma cruzi; experiment: as §1, with “H2C9” for “Trypanosoma cruzi”, “H9c2 Host Cardiomyocytes.” for “Infected Cells.”, “Number” for “percentage”, “H9c2 Host Cardiomyocytes nuclei to determine drug-related cytotoxicity.” for “infected cells per well as a second infection marker.”; type: functional, organism-based, Rattus norvegicus; details: H9c2, 4 h
[5] = system: Leishmania donovani; experiment: GSK_TCAKS: pIC50 Leishmania donovani viability assay using fluorescence intensity. Assay plates (1536-well) were prepared by adding 30nL per well of compound. For single shot assay, the final compound concentration was 5uM. […] Briefly, eGFP LdBOB axenic amastigotes were harvested, fixed and counted in a CASY cell counter (Roche-Applied Science). A final concentration of 1.5 * 10^5 cells per well were prepared in amastigote media containing 500 U/mL penicillin/streptomycin (Invitrogen) and 6uL was dispensed to each experimental well using a Multidrop Combi dispenser (Thermo Scientific). 6uL of assay media was dispensed to control columns used as reference for 100% compound response. Following incubation for 72 h at 37C, 5% CO2, 2 uL of resazurin was added to each well at a final concentration of 0.5 mM in phosphate buffered saline (PBS) with IGEPAL (Sigma-Aldrich), 0.05% (v/v).; type: functional, organism-based
[6] = system: Leishmania donovani; experiment: (§2) GSK_TCAKS: pIC50 Leishmania donovani Imaging: Infected Macrophages. Assay plates (384-well) were prepared by adding 250nL of compound to each well. For single shot assay, the final compound concentration was 5 uM. […] Automated image analysis was performed with a script developed on Acapella High Content Imaging and Analysis Software (PerkinElmer). Output: Percent of infected macrophage cells were reported for each well.; type: functional, organism-based, Homo sapiens; details: THP-1
[7] = system: Leishmania donovani; experiment: as §2, with “Amastigotes/Macrophages.” for “Infected Macrophages.”, “Average number” for “Percent”, “amastigotes per” for “infected”, “cell” for “cells”; type: functional, organism-based, Homo sapiens; details: THP-1
[8] = system: Leishmania donovani; experiment: as §2, with “THP-1 Host” for “Infected”, “THP-1 cell count” for “Percent of infected macrophage cells”; type: functional, organism-based, Homo sapiens
[9] = system: Trypanosoma brucei brucei; experiment: GSK_TCAKS: pIC50 Trypanosoma brucei viability assay using fluorescence intensity. Assay plates (1536-well) were prepared by dispensing 25nL of compound solution per well using an Echo acoustic dispenser (Labcyte).; type: functional, organism-based; details: Lister 427, 2 h
[10] = system: Trypanosoma brucei brucei; experiment: GSK_TCAKS: pIC50 Trypanosoma brucei viability assay using luminiscence. Assay plates (1536-well) were prepared. T. brucei cultures were harvested and counted in a CASY cell counter. A parasite suspension was prepared at a final concentration of 5 * 10^4 cells/mL in complete HMI9 medium and 6uL was dispensed to all wells containing compounds using a Multidrop Combi dispenser. 6uL of HMI9 media with 0.4% DMSO were dispensed to control columns. Plates were incubated for 24 h at 37C, 5% CO2 then tempered for 10 min at room temperature. ATP content was quantified by adding 4 uL of CellTiter-Glo Reagent (Promega) according to the manufacturer's instructions. Luminescence was measured using a ViewLux.; type: functional, organism-based; details: Lister 427, CASY
[11] = GSK_TCAKS: pIC50 HepG2 human cell line viability assay using luminiscence. […] Seeding density was checked to ensure that new mono-layers were not more than 50% confluent at the time of harvesting. Cell suspension was added to 500 mL of the same medium at a final density of 1.2 * 10^5 cells/mL. This cell suspension was dispensed (25 uL, 3000 cells per well) into 384-well clear-bottom plates using a Multidrop Combi dispenser. Prior to addition of the cell suspension, the screening compounds (250 nL) were pre-dispensed into the plates with an Echo liquid handler. Plates were incubated for 48 h at 37C, 5% CO2. After incubation, plates equilibrated at room temperature for 30 min before proceeding to develop the luminescent signal. The signal developer, CellTiter-Glo Reagent, was allowed to equilibrate at room temperature for 30 min and added to the plates (25uL per well) using a Multidrop Combi dispenser. Plates were left for 10 min at room temperature for stabilization and then read using a ViewLux.; type: toxicity, cell-based
[12] = molecular target: Sterol 14-alpha demethylase (Trypanosoma cruzi (strain CL Brener), UniProt Q7Z1V1); experiment: GSK_TCAKS: pIC50 CYP51 from Trypanosoma cruzi.; type: functional
Sterol 14-alpha demethylase, sequence (Q7Z1V1 whole entry): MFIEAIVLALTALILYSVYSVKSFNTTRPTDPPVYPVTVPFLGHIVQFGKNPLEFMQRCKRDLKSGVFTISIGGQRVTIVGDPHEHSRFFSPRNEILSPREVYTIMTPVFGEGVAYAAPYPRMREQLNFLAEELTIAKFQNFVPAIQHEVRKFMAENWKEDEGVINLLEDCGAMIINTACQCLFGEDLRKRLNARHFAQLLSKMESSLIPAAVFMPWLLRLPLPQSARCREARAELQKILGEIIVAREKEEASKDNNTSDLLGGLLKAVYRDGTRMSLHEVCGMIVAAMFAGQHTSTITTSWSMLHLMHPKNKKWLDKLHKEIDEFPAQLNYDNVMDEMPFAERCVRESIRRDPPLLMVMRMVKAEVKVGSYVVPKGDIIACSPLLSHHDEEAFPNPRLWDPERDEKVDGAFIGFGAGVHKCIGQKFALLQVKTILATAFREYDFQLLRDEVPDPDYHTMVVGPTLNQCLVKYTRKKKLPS

Row | SMILES | IC50 [1] [µM] | IC50 [2] [µM] | IC50 [3] [µM] | IC50 [4] [µM] | IC50 [5] [µM] | IC50 [6] [µM] | IC50 [7] [µM] | IC50 [8] [µM] | IC50 [9] [µM] | IC50 [10] [µM] | IC50 at 48 h [11] [µM] | IC50 [12] [µM]
1 | O=C(NCCc1csc(-c2ccc(F)cc2)n1)c1ccco1 | 2.24 | 1.58 | 1.26 | > 50.1 | > 50.1 | > 50.1 | > 50.1 | > 50.1 | 0.398 | 0.501 | > 100 | > 100
2 | Nc1nc(-c2ccccn2)nc(-n2nc(-c3ccccc3)cc2N)n1 | 0.501 | 2.51 | 0.316 | 2 | 2 | 0.794 | 0.794 | 10 | 1 | 3.16 | 10 | > 100
3 | CC(C)(C)C(=O)NCCc1csc(-c2ccc(F)cc2)n1 | 3.55 | 3.16 | 2.51 | > 50.1 | > 50.1 | > 50.1 | > 50.1 | > 50.1 | 0.631 | 0.794 | > 100 | 79.4
4 | COCc1cnc2c(c1SCc1c(F)cccc1Cl)c(=O)n(C)c(=O)n2C | > 50.1 | 3.98 | 2.51 | > 50.1 | 3.98 | 5.01 | 5.01 | > 50.1 | 3.98 | > 39.8 | > 100 | 25.1
5 | CNC(=O)C1Cc2ccccc2N1C(=O)COc1cccc(OC)c1 (stereo not drawn) | > 50.1 | > 50.1 | > 50.1 | > 50.1 | > 50.1 | > 50.1 | > 50.1 | > 50.1 | 0.631 | 1 | > 100 | 100
6 | CCOc1ccc(OCC(=O)N2c3ccccc3CC2C(=O)NC)cc1 (stereo not drawn) | > 50.1 | > 50.1 | > 50.1 | > 50.1 | > 50.1 | > 50.1 | > 50.1 | > 50.1 | 0.501 | 0.794 | > 100 | > 100
7 | CNC(=O)C1Cc2ccccc2N1C(=O)Cc1ccccc1 (stereo not drawn) | > 50.1 | > 50.1 | > 50.1 | > 50.1 | > 50.1 | > 50.1 | > 50.1 | > 50.1 | 0.631 | 1 | > 100 | > 100
8 | CNC(=O)C1Cc2ccccc2N1C(=O)Cc1ccc(OC)cc1 (stereo not drawn) | > 50.1 | > 50.1 | > 50.1 | > 50.1 | > 50.1 | 7.94 | 12.6 | 7.94 | 0.398 | 0.501 | > 100 | > 100
9 | CCOc1ccc(CC(=O)N2c3ccccc3CC2C(=O)NC)cc1 (stereo not drawn) | > 50.1 | > 50.1 | > 50.1 | > 50.1 | > 50.1 | > 50.1 | > 50.1 | > 50.1 | 0.501 | 0.501 | > 100 | > 100
